pIC50: −log10 of the molar value.
Target: T1, KRAS G12D/RAF1 (Homo sapiens, UniProt P01116, G12D)
T1 construct: KRAS (1-169) proteins were expressed in E. coli at 18° C; His6-MBP (N, cleaved yes); made in house; host or cells: E. coli
Assay: Protein-protein interaction (PPI) HTRF assay KRAS G12D/RAF1
Type: binding
Details: KRAS G12D/RAF1, GppNHp-loaded KRAS; 30 minutes pre-incubation
Outline: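 IC50 values come from the 665/615 HTRF ratio, scaled between no-compound (0% inhibition) and untagged RAF1 (100%). GppNHp-exchanged, biotinylated RAS (1-169) solution at 16 nM met compound for 30 min at room temperature. Then 16 nM His-tagged RAF1 (52-131) donor solution was added and incubated 1 h.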

T1 sequence (P01116 1-169 isoform P01116-2 G12D): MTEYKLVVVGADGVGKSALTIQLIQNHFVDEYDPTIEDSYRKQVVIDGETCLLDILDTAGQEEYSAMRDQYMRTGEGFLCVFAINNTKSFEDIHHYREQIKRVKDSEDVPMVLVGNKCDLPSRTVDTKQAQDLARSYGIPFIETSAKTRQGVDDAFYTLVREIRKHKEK

How did the pIC50 turn out when `N#CNC1CCCN(c2nc(OC[C@@]34CCCN3C[C@H](F)C4)nc3c2COC2(CCc4c(Cl)cccc42)C3)C1` (stereo partly drawn) [Compound 29, [1-[4′-chloro-2-[[(2R,8S)-2-fluoro-1,2,3,5,6,7-hexahydropyrrolizin-8-yl]methoxy]spiro[5,8-dihydropyrano[4,3-d]pyrimidine-7,1′-indane]-4-yl]-3-piperidyl]cyanamide] was run?
The pIC50 was 4.00 to 5.00.

`CN(C)C(=O)c1cc2n(n1)CCCN(c1nc(OC[C@@]34CCCN3C[C@H](F)C4)nc3c1CN(C)C1(CCCc4ccc(O)cc41)C3)C2` (stereo partly drawn) [Compound 39, 5-[7′-hydroxy-6-methyl-2-[[(2R,8S)-2-fluoro-1,2,3,5,6,7-hexahydropyrrolizin-8-yl]methoxy]spiro[5,8-dihydropyrido[4,3-d]pyrimidine-7,1′-tetralin]-4-yl]-N,N-dimethyl-4,6,7,8-tetrahydropyrazolo[1,5-a][1,4]diazepine-2-carboxamide] was tested. Which pIC50 did it give?
The pIC50 was < 4.00.

How did the pIC50 turn out when `CN(C)C(=O)c1cc2n(n1)CCCN(c1nc(OC[C@@]34CCCN3C[C@H](F)C4)nc3c1CN(C)[C@@]1(CCCc4ccc(O)cc41)C3)C2` [Compound 39A, 5-[(7S)-2-[[(2R,8S)-2-fluoro-1,2,3,5,6,7-hexahydropyrrolizin-8-yl]methoxy]-7′-hydroxy-6-methyl-spiro[5,8-dihydropyrido[4,3-d]pyrimidine-7,1′-tetralin]-4-yl]-N,N-dimethyl-4,6,7,8-tetrahydropyrazolo[1,5-a][1,4]diazepine-2-carboxamide] was run?
The pIC50 was 4.00 to 5.00.

How did the pIC50 turn out when `Cc1c(C(=O)N(C)C)nn2c1CN(c1nc(OC[C@@]34CCCN3C[C@H](F)C4)nc3c1CO[C@@]1(CCc4c(Cl)cccc41)C3)CCC2` [Compound 42, 5-[(7S)-4′-chloro-2-[[(2R,8S)-2-fluoro-1,2,3,5,6,7-hexahydropyrrolizin-8-yl]methoxy]spiro[5,8-dihydropyrano[4,3-d]pyrimidine-7,1′-indane]-4-yl]-N,N,3-trimethyl-4,6,7,8-tetrahydropyrazolo[1,5-a][1,4]diazepine-2-carboxamide] was run?
The pIC50 was 4.00 to 5.00.

With `O=C(c1nn2c(c1Cl)CN(c1nc(OC[C@@]34CCCN3C[C@H](F)C4)nc3c1CO[C@@]1(CCc4c(Cl)cccc41)C3)CCC2)N1CCOCC1` [Compound 45, [3-chloro-5-[(7S)-4′-chloro-2-[[(2R,8S)-2-fluoro-1,2,3,5,6,7-hexahydropyrrolizin-8-yl]methoxy]spiro[5,8-dihydropyrano[4,3-d]pyrimidine-7,1′-indane]-4-yl]-4,6,7,8-tetrahydropyrazolo[1,5-a][1,4]diazepin-2-yl]-morpholino-methanone] as the compound, how does the pIC50 read?
The pIC50 was 4.00 to 5.00.

How did the pIC50 turn out when `C[C@@]1(NC#N)CCCN(c2nc(OC[C@@]34CCCN3C[C@H](F)C4)nc3c2COC2(CCc4c(Cl)cccc42)C3)C1` (stereo partly drawn) [Compound 46A, [(3R)-1-[(7*)-4′-chloro-2-[[(2R,8S)-2-fluoro-1,2,3,5,6,7-hexahydropyrrolizin-8-yl]methoxy]spiro[5,8-dihydropyrano[4,3-d]pyrimidine-7,1′-indane]-4-yl]-3-methyl-3-piperidyl]cyanamide; 2,2,2-trifluoroacetic acid] was run?
Its pIC50 is 4.00 to 5.00.

`CN(C)C(=O)c1nn2c(c1Cl)CN(c1nc(OCC3(CN4CCOCC4)CC3)nc3c1CO[C@@]1(CCc4c(Cl)cccc41)C3)CCC2` [Compound 47, 3-chloro-5-[(7S)-4′-chloro-2-[[1-(morpholinomethyl)cyclopropyl]methoxy]spiro[5,8-dihydropyrano[4,3-d]pyrimidine-7,1′-indane]-4-yl]-N,N-dimethyl-4,6,7,8-tetrahydropyrazolo[1,5-a][1,4]diazepine-2-carboxamide] was tested. Which pIC50 did it give?
The pIC50 was < 4.00.

`O=C(c1nn2c(c1Cl)CN(c1nc(OC[C@@]34CCCN3C[C@H](F)C4)nc3c1CO[C@@]1(CCc4c(Cl)cccc41)C3)CCC2)N1CCNCC1` [Compound 49, [3-chloro-5-[(7S)-4′-chloro-2-[[(2R,8S)-2-fluoro-1,2,3,5,6,7-hexahydropyrrolizin-8-yl]methoxy]spiro[5,8-dihydropyrano[4,3-d]pyrimidine-7,1′-indane]-4-yl]-4,6,7,8-tetrahydropyrazolo[1,5-a][1,4]diazepin-2-yl]-piperazin-1-yl-methanone] was tested. Which pIC50 did it give?
The pIC50 was 4.00 to 5.00.

How did the pIC50 turn out when `CN1CCN(C(=O)c2nn3c(c2Cl)CN(c2nc(OC[C@@]45CCCN4C[C@H](F)C5)nc4c2CO[C@@]2(CCc5c(Cl)cccc52)C4)CCC3)CC1` [Compound 50, [3-chloro-5-[(7S)-4′-chloro-2-[[(2R,8S)-2-fluoro-1,2,3,5,6,7-hexahydropyrrolizin-8-yl]methoxy]spiro[5,8-dihydropyrano[4,3-d]pyrimidine-7,1′-indane]-4-yl]-4,6,7,8-tetrahydropyrazolo[1,5-a][1,4]diazepin-2-yl]-(4-methylpiperazin-1-yl)methanone] was run?
Its pIC50 is 4.00 to 5.00.

`CN(C)C(=O)c1nn2c(c1Cl)CN(c1nc(OC[C@@]34CCCN3C[C@H](F)C4)nc3c1CN(C)[C@@]1(CCc4c(Cl)cccc41)C3)CCC2` [Compound 55, 3-chloro-5-((S)-4-chloro-2′-(((2R,7aS)-2-fluorotetrahydro-1H-pyrrolizin-7a(5H)-yl)methoxy)-6′-methyl-2,3,5′,8′-tetrahydro-6′H-spiro[indene-1,7′-pyrido[4,3-d]pyrimidin]-4′-yl)-N,N-dimethyl-5,6,7,8-tetrahydro-4H-pyrazolo[1,5-a][1,4]diazepine-2-carboxamide] was tested. Which pIC50 did it give?
The pIC50 was 4.00 to 5.00.

`CN1Cc2c(nc(OC[C@@]34CCCN3C[C@H](F)C4)nc2N2CCC[C@]3(C2)NC(=O)NC3=O)C[C@]12CCc1ccccc12` [Compound 60, (5R)-9-[(7S)-2-[[(2R,8S)-2-fluoro-1,2,3,5,6,7-hexahydropyrrolizin-8-yl]methoxy]-6-methyl-spiro[5,8-dihydropyrido[4,3-d]pyrimidine-7,1′-indane]-4-yl]-1,3,9-triazaspiro[4.5]decane-2,4-dione] was tested. Which pIC50 did it give?
The pIC50 was 4.00 to 5.00.

`CN(C)C(=O)c1nn2c(c1Cl)CN(c1nc(OC[C@@]34CCCN3C[C@H](F)C4)nc3c1CN(C)[C@@]1(CCc4c(F)ccc(F)c41)C3)CCC2` [Compound 61, 3-chloro-5-[(7S)-4′,7′-difluoro-2-[[(2R,8S)-2-fluoro-1,2,3,5,6,7-hexahydropyrrolizin-8-yl]methoxy]-6-methyl-spiro[5,8-dihydropyrido[4,3-d]pyrimidine-7,1′-indane]-4-yl]-N,N-dimethyl-4,6,7,8-tetrahydropyrazolo[1,5-a][1,4]diazepine-2-carboxamide] was tested. Which pIC50 did it give?
Its pIC50 is 4.00 to 5.00.

How did the pIC50 turn out when `CN(C)C(=O)c1nn2c(c1Cl)CN(c1nc(OC[C@@]34CCCN3C[C@H](F)C4)nc3c1CN(C)[C@@]1(CCc4cccc(F)c41)C3)CCC2` [Compound 63, 3-chloro-5-[(7S)-7′-fluoro-2-[[(2R,8S)-2-fluoro-1,2,3,5,6,7-hexahydropyrrolizin-8-yl]methoxy]-6-methyl-spiro[5,8-dihydropyrido[4,3-d]pyrimidine-7,1′-indane]-4-yl]-N,N-dimethyl-4,6,7,8-tetrahydropyrazolo[1,5-a][1,4]diazepine-2-carboxamide] was run?
The pIC50 was 4.00 to 5.00.

With `CN(C)C(=O)c1nn2c(c1Cl)CN(c1nc(OC[C@@]34CCCN3C[C@H](F)C4)nc3c1CN(C)[C@@]1(CCc4c(F)cccc41)C3)CCC2` [Compound 65, 3-chloro-5-[(7S)-4′-fluoro-2-[[(2R,8S)-2-fluoro-1,2,3,5,6,7-hexahydropyrrolizin-8-yl]methoxy]-6-methyl-spiro[5,8-dihydropyrido[4,3-d]pyrimidine-7,1′-indane]-4-yl]-N,N-dimethyl-4,6,7,8-tetrahydropyrazolo[1,5-a][1,4]diazepine-2-carboxamide] as the compound, how does the pIC50 read?
Its pIC50 is 4.00 to 5.00.

`CN(C)C(=O)c1nn2c(c1Cl)CN(c1nc(OC[C@@]34CCCN3C[C@H](F)C4)nc3c1CN(C)[C@@]1(CCc4cccc(Cl)c41)C3)CCC2` [Compound 69, 3-chloro-5-[(7S)-7′-chloro-2-[[(2R,8S)-2-fluoro-1,2,3,5,6,7-hexahydropyrrolizin-8-yl]methoxy]-6-methyl-spiro[5,8-dihydropyrido[4,3-d]pyrimidine-7,1′-indane]-4-yl]-N,N-dimethyl-4,6,7,8-tetrahydropyrazolo[1,5-a][1,4]diazepine-2-carboxamide] was tested. Which pIC50 did it give?
Its pIC50 is 4.00 to 5.00.

How did the pIC50 turn out when `CN(C)C(=O)c1cc2n(n1)CCCN(c1nc(OC[C@@]34CCCN3C[C@H](F)C4)nc3c1CN(C)[C@@]1(CCCc4ccccc41)C3)C2` [Compound 72, 5-[(7S)-2-[[(2R,8S)-2-fluoro-1,2,3,5,6,7-hexahydropyrrolizin-8-yl]methoxy]-6-methyl-spiro[5,8-dihydropyrido[4,3-d]pyrimidine-7,1′-tetralin]-4-yl]-N,N-dimethyl-4,6,7,8-tetrahydropyrazolo[1,5-a][1,4]diazepine-2-carboxamide] was run?
The pIC50 was 4.00 to 5.00.

`CN1Cc2c(nc(OC[C@@]34CCCN3C[C@H](F)C4)nc2N2CCCn3nc(N)c(Cl)c3C2)C[C@]12CCCc1ccccc12` [Compound 79, 3-chloro-5-[(7S)-2-[[(2R,8S)-2-fluoro-1,2,3,5,6,7-hexahydropyrrolizin-8-yl]methoxy]-6-methyl-spiro[5,8-dihydropyrido[4,3-d]pyrimidine-7,1′-tetralin]-4-yl]-4,6,7,8-tetrahydropyrazolo[1,5-a][1,4]diazepin-2-amine] was tested. Which pIC50 did it give?
The pIC50 was < 4.00.

How did the pIC50 turn out when `CN1Cc2c(nc(OC[C@@]34CCCN3C[C@H](F)C4)nc2N2C[C@H]3CC[C@@H](C2)N3)C[C@]12CCCc1ccccc12` [Compound 84, (7S)-4-[(1R,5S)-3,8-diazabicyclo[3.2.1]octan-3-yl]-2-[[(2R,8S)-2-fluoro-1,2,3,5,6,7-hexahydropyrrolizin-8-yl]methoxy]-6-methyl-spiro[5,8-dihydropyrido[4,3-d]pyrimidine-7,1′-tetralin]] was run?
The pIC50 was < 4.00.

How did the pIC50 turn out when `Cc1nc(-c2nn3c(c2Cl)CN(c2nc(OC[C@@]45CCCN4C[C@H](F)C5)nc4c2CN(C)[C@@]2(CCCc5ccccc52)C4)CCC3)no1` [Compound 87, 3-[3-chloro-5-[(7S)-2-[[(2R,8S)-2-fluoro-1,2,3,5,6,7-hexahydropyrrolizin-8-yl]methoxy]-6-methyl-spiro[5,8-dihydropyrido[4,3-d]pyrimidine-7,1′-tetralin]-4-yl]-4,6,7,8-tetrahydropyrazolo[1,5-a][1,4]diazepin-2-yl]-5-methyl-1,2,4-oxadiazole] was run?
Its pIC50 is 4.00 to 5.00.

Source: patent publication US11912723B2, “KRAS modulators and uses thereof” (Quanta Therapeutics, Inc., priority 2022, dated 2024)
